Where “and” joins values, the source holds several entries; their conditions need not be identical. Equal values may be shown once. Read-outs that look alike come from different tables or passages of the source.
Legend:
mouse quadriceps muscle [1] = assay: Luciferase expression in mouse quadriceps muscle 7 days after i.m. injection of plasmid VR1223 in salt solutions; assay type: in vivo; design: lux: unit: ng/muscle; settings: for ng Lux per Muscle: 50 μg VR1223 in 50 μl of the solution; for ng luciferase per muscle / ng Lux/Muscle: 50 μg VR1223 in 50 μl; for lux: 7-day luciferase expression, VR1223; for ng lux/muscle: reproducibility; for luciferase expression compared with saline (words): 150 mM solutions
mouse lung = assay: Luciferase expression in mouse lung 3 days after intranasal instillation of VR1223 complexed with GAP-DLRIE/DOPE; assay type: in vivo; settings: 132 μg VR1223 + GAP-DLRIE/DOPE, day 3
mouse quadriceps muscle [2] = assay: Serum human IFN-ω after i.m. injection of plasmid VR4151; assay type: in vivo; settings: 50 μg VR4151, day 7
Protocol: (§1) Muscle extracts were assayed for β-galactosidase and the serum was assayed for circulating levels of IFN-ω.

B16F10 tumor cells = assay: Anti-tumor effect of i.m. mIFN-α plasmid VR4111 in mice bearing subcutaneous B16F10 tumors; assay type: in vivo, mouse
pH of the salt solutions = assay type: physicochemical
mouse quadriceps muscle [3] = assay: β-galactosidase-stained muscle fibers after i.m. injection of plasmid VR1412; assay type: in vivo; settings: 50 μg VR1412, day 7, n=10
Protocol: For whole muscle staining, quadriceps were fixed for 3 hours at room temperature in 2% paraformaldehyde in PBS, washed 3 times for 20 min each in PBS and incubated for 18 hours at 37° C. in a solution containing 2 mM MgCl2, 5 mM potassium ferricferrocyanide and 1 mg/ml 5-bromo-4-chloro-3-indoyl-β-D-galactosidase (available from Life Technologies, Inc. (LTI), Gaithersberg, Md.) in PBS. After incubation, the muscles were washed 3 times for 10 min each in 3% dimethyl sulfoxide in PBS and stored in PBS at 4° C. until analysis. […] Sections were collected on 1% gelatin coated glass slides, brought to room temperature and stained for 2 hours at 37° C. in the same reagent as for whole mounts above except that the beta-galactosidase reagent concentration was 200 μg/ml. The sections were then counterstained with Harris hematoxylin in acetic acid, rinsed in tap water, dehydrated and mounted in Permount (Fisher, Fair Lawn, N.J.).
Individual muscle cells were examined for β-galactosidase expression as follows.
Whole quadriceps muscle groups were harvested on day 7. Muscles were snap frozen in OTC medium (n=10 muscles for each group). 10 micron cross-sections were stained with x-gal (substrate for β-gal). Fibers expressing β-gal (stained blue) were counted.

[4] = Osmolarity of the salt solutions; assay type: physicochemical; settings: for Osm: 150 mM unless otherwise indicated
mouse quadriceps muscle [5] = assay: β-galactosidase expression in mouse quadriceps muscle after i.m. injection of plasmid VR1418; settings: 10 μg VR1418, day 7
Protocol: The luciferase content of the samples was calculated from Relative Light Units using a standard curve of purified firefly luciferase (Analytical Luminescence Laboratory, San Diego, Calif.; Cat. No. 2400), which was diluted in pooled extract from uninjected muscles to control for quenching. Luciferase values were expressed as ng luciferase per muscle. […] A standard curve, prepared in pooled extract from uninjected muscles, was included on each plate using the β-galactosidase enzyme standard included in the kit.
as §1
Quadriceps muscles were injected with 50 μl of each solution containing 10 μg of plasmid VR1418, and the muscles were tested for 7-day expression levels.

[6] = test system: tibialis anterior muscles of nude mice; assay: Serum SEAP after injection of plasmid VR3301 into tibialis anterior muscles of nude mice; assay type: in vivo, mouse
Protocol: Briefly, tissues were rapidly collected and frozen, they were combined with and frozen into a lysis buffer, the tissue was then pulverized with a drill bit run in reverse direction, the resulting powder was thawed, and was extracted two times with extraction buffer. Nude mice were injected with VR3301 DNA bilaterally on three consecutive days for a total of 300 μg DNA per mouse.
Sera from nude mice injected with VR3301 were collected at various times post-injection. […] Samples were assayed in duplicate. Plates were sealed, incubated at 65° C. for 30 min and spun for 5 min at 4000 rpm at room temperature. […] The samples were analyzed using a Molecular Devices Opti Max plate reader (Sunnyvale, Calif.). The plate reader was pre-warmed to 37° C. and a standard kinetic program was used to assay the samples at a wavelength of 405 nm for 30 min.
The mice were monitored over time for blood levels of SEAP or proinsulin or for hematocrits. In the case of SEAP, plasmid DNA was injected into the tibialis anterior muscles, and nude mice were used to prevent an immune response to the foreign transgene product.
The mice were monitored for blood levels of SEAP at day 7 post-injection. Plasmid DNA was injected into the tibialis anterior muscles, and nude mice were used to prevent an immune response to the foreign transgene product.

mouse quadriceps muscle [7] = assay: Luciferase expression in mouse quadriceps muscle after i.m. injection of plasmid VR1255 with auxiliary agents; settings: 0.01% agent in saline versus saline alone, day 7
rectus femoris muscle = settings: group 4
Description: Two milliliters of DNA were delivered as 1-ml injections into each rectus femoris muscle. Following injection, cats were monitored at 7 day intervals for serum hematocrit levels, which correlate with the expression of erythropoeitin.

mouse quadriceps muscle [8] = assay: Hematocrit after i.m. injection of mouse erythropoietin plasmid (VR2901, VR2996); assay type: in vivo
Protocol: Hematocrits were measured by centrifugation of blood obtained from the retro-orbital cavity of mice. Blood samples were collected in 75 μl heparinized capillary tubes and analyzed using HemaSTAT II microhematocrit centrifuge (Separation Technology, Inc., Altamonte Springs, Fla.).
The mice were monitored over time for serum hematocrit levels, which correlate with the expression of erythropoeitin.
The mice were monitored over four weeks for serum hematocrit levels, which correlate with the expression of erythropoeitin.
The mice were monitored at days 0, 7, 14, 21, and 28 for serum hematocrit levels, which correlate with the expression of erythropoeitin.
The mice were monitored at days 7, 14, and 28 for serum hematocrit levels, which correlate with the expression of erythropoeitin. Control serum levels were measured before any injections.

[9] = 150 mM unless otherwise indicated
[10] = salts at 150 mM, relative to saline, day 7

O [Double-distilled water, reference compound]
ng Lux per Muscle (mouse quadriceps muscle [1]; day 7): 4 ng per Muscle
ng luciferase per muscle (mouse quadriceps muscle [1]; day 7): 4 ng luciferase per muscle
luciferase expression, times lower than saline (mouse quadriceps muscle [1]; VR1223, day 7): 25 times
Fold Saline (mouse quadriceps muscle [1]; luciferase expression relative to saline, day 7): 0.03 Fold
luciferase expression in lung (mouse lung): 0.94 ng lux/lung

[Cl-].[Na+] [Sodium Chloride, reference compound]
serum IFN-ω levels (mouse quadriceps muscle [2]): 0.14 ng ml serum
tumor volume (B16F10 tumor cells; 27 days, VR4111): 2069 mm^3
survival versus blank DNA in saline (B16F10 tumor cells; p<0.007, Kaplan-Meier): statistically significant survival difference
mice surviving (B16F10 tumor cells; to day 38, VR4111): 2 out of 10
pH (pH of the salt solutions): 5.5
pH (pH of the salt solutions; [9]): 5.5
β-galactosidase-positive myofiber cells (mouse quadriceps muscle [3]): 108+/−21 myofiber cells/muscle section
ng Lux per Muscle (mouse quadriceps muscle [1]; day 7, listed as 100 mM Sodium Chloride): 112 ng per Muscle
ng Lux per Muscle (mouse quadriceps muscle [1]; day 7, listed as 150 mM Sodium Chloride (saline)): 119 ng per Muscle
ng luciferase per muscle (mouse quadriceps muscle [1]; day 7, listed as 100 mM NaCl): 112 ng luciferase per muscle
ng luciferase per muscle (mouse quadriceps muscle [1]; day 7, listed as saline): 119 ng luciferase per muscle and 89 ng luciferase per muscle
ng Lux/Muscle (mouse quadriceps muscle [1]; salts at 150 mM, day 7): 119 ng/Muscle
luciferase in muscle (mouse quadriceps muscle [1]; Example 4, run in parallel, day 7): 159 ng/muscle
lux (mouse quadriceps muscle [1]; Table III-A): 119
lux (mouse quadriceps muscle [1]; Table III-A, listed as 100 mM NaCl): 112
lux (mouse quadriceps muscle [1]; Table III-A, listed as 150 mM NaCl (Saline)): 119
lux (mouse quadriceps muscle [1]; Table III-B, listed as 100 mM NaCl): 112
lux (mouse quadriceps muscle [1]; Table III-B, listed as 150 mM NaCl (Saline)): 119
ng luciferase/muscle (mouse quadriceps muscle [1]; average of all 9 experiments): 120 ng luciferase/muscle
Fold Saline (mouse quadriceps muscle [1]; luciferase expression relative to saline, day 7, listed as 100 mM Sodium Chloride): 0.9 Fold
Fold Saline (mouse quadriceps muscle [1]; luciferase expression relative to saline, day 7, listed as 150 mM Sodium Chloride (saline)): 1.0 Fold
ng lux/muscle (mouse quadriceps muscle [1]; Exp. #1): 49 ng lux/muscle
ng lux/muscle (mouse quadriceps muscle [1]; Exp. #9): 156 ng lux/muscle
Fold Saline (mouse quadriceps muscle [1]; [10]): 1.0 Fold
Osm ([4]; listed as 100 mM NaCl): 215 mmol/kg
Osm ([4]; listed as 150 mM NaCl (Saline)): 310 mmol/kg
osmolarity ([4]; listed as saline): 310 mmol/kg and 308 mmol/kg
luciferase expression in lung (mouse lung): 0.14 ng lux/lung
β-galactosidase in muscle (mouse quadriceps muscle [5]): 3.0 ng/muscle

[Cl-].[Cl-].[Zn+2] [Zinc Chloride]
pH (pH of the salt solutions; [9]): 5.0
ng Lux/Muscle (mouse quadriceps muscle [1]; salts at 150 mM, day 7): 0.1 ng/Muscle
luciferase expression compared with saline (words) (mouse quadriceps muscle [1]; VR1223, day 7): no ability to enhance
lux (mouse quadriceps muscle [1]; Table III-A): 0.1
lux (mouse quadriceps muscle [1]; Table III-B): 0.1
Fold Saline (mouse quadriceps muscle [1]; [10]): <0.1 Fold
Osm [4]: 358 mmol/kg

Calcium Phosphate
pH (pH of the salt solutions; [9]): 6.0
ng Lux/Muscle (mouse quadriceps muscle [1]; salts at 150 mM, day 7): 12 ng/Muscle
luciferase expression compared with saline (words) (mouse quadriceps muscle [1]; VR1223, day 7): no ability to enhance
lux (mouse quadriceps muscle [1]; Table III-A): 12
lux (mouse quadriceps muscle [1]; Table III-B): 12
Fold Saline (mouse quadriceps muscle [1]; [10]): 0.1 Fold
Osm [4]: 36 mmol/kg

octyl phenol ethylene oxide condensate with about 9-10 ethylene oxide units [Triton X-100]
SEAP expression with 100 μg DNA plus agent versus 300 μg DNA in 150 mM sodium phosphate alone ([6]; day 7): nearly equivalent
SEAP expression, fold compared with sodium phosphate alone ([6]; day 7): 1.7 fold
SEAP expression, fold compared with 150 mM sodium phosphate alone ([6]; day 35): 2 fold
increase of luciferase expression in 154 mM sodium chloride (mouse quadriceps muscle [7]): six-fold
mice with anti-β-galactosidase antibody (β-galactosidase; 10 μg VR1412, four weeks): three of the five
mice with anti-β-galactosidase antibody (β-galactosidase; 10 μg VR1412, ten weeks): four of the five
period of elevated hematocrit (rectus femoris muscle): > 40 days

octylphenoxypolyethoxyethanol [NONIDET NP-40]
hematocrit versus 150 mM sodium phosphate alone (mouse quadriceps muscle [8]; 5 μg VR2901, 0.01% agent, all time points): higher hematocrit levels
rise in hematocrit (mouse quadriceps muscle [8]; 5 μg VR2901, after day 14): 10%
increase of luciferase expression in 154 mM sodium chloride (mouse quadriceps muscle [7]): three-fold

Source: patent US6875748B2, “Compositions and methods for in vivo delivery of polynucleotide-based therapeutics” (Vical Incorporated, priority 2000, dated 2005)
